A short description of the first series: Water solubility of the diamines, literature values. The class given is physicochemical. To be noted: ratio of cited solubilities.
As for `CC1CC(CC2CCC(N)C(C)C2)CCC1N` (stereo not shown) [4,4′-methylene-bis(2-methylcyclohexylamine)], the “water solubility less by a factor, versus 4,4′-methylene-bis(cyclohexylamine)” value was 45.

Experiment in the next series: not given
To be noted: salts of 1,2,3,4-butanetetracarboxylic acid; 1 ml distilled water with around 20 to 40% by weight of salt, stirred 15 minutes.
Take `Nc1n[nH]c(N)n1` [Example V38]: the Salt is water-soluble result was “no”. For the compound `Nc1ccc(Cc2ccc(N)cc2)cc1` [Example V39], the Salt is water-soluble result is “no”. Same read-out and setting: for “Tricyclo[5.2.1.0^2,6]decane-3(4),8(9)-bis(methanammonium)-dihydrogen-1,2,3,4-butane-tetracarboxylate [Example B20]” the value was “yes”.

Staying with this series, now noted: salts of 1,2,3,4-cyclobutanetetracarboxylic acid; 1 ml distilled water with around 20 to 40% by weight of salt, stirred 15 minutes.
For the compound `NCC1CC2CC1CC2CN.O=C(O)C1C(C(=O)O)C(C(=O)O)C1C(=O)O` (stereo not shown) [Example B21, Norbornane bis(methylammonium)-dihydrogen-1,2,3,4-cyclobutanetetracarboxylate], the Salt is water-soluble result is given as “yes”. Take `NCCCCN.O=C(O)C1C(C(=O)O)C(C(=O)O)C1C(=O)O` (stereo not shown) [Example V42]: the Salt is water-soluble entry was “yes”.

With `CC1(C)CC(N)CC(C)(CN)C1.O=C(O)C1C(C(=O)O)C(C(=O)O)C1C(=O)O` (stereo not shown) [Example V54], the Salt is water-soluble entry is reported as “yes”. With `NCc1cccc(CN)c1.O=C(O)C1C(C(=O)O)C(C(=O)O)C1C(=O)O` (stereo not shown) [Example V55], the Salt is water-soluble entry is given as “yes”.

Turning to “Tricyclo[5.2.1.0^2,6]decane-3(4),8(9)-bis(methanammonium)-dihydrogen-1,2,3,4-cyclobutanetetracarboxylate [Example B22]”, the Salt is water-soluble entry is given as “yes”.

The same series, now with this note: salts of 1,2,3,4-cyclopentanetetracarboxylic acid; 1 ml distilled water with around 20 to 40% by weight of salt, stirred 15 minutes.
For `NCC1CC2CC1CC2CN.O=C(O)C1CC(C(=O)O)C(C(=O)O)C1C(=O)O` (stereo not shown) [Example B23, Norbornane bis(methylammonium)-dihydrogen-1,2,3,4-cyclopentanetetracarboxylate], the Salt is water-soluble result is reported as “yes”. With `NCCCCN.O=C(O)C1CC(C(=O)O)C(C(=O)O)C1C(=O)O` (stereo not shown) [Example V57], the Salt is water-soluble entry is listed as “yes”. `CC(CN)CCCN.O=C(O)C1CC(C(=O)O)C(C(=O)O)C1C(=O)O` (stereo not shown) [Example V60]: the Salt is water-soluble result is recorded as “yes”.

As for `NCCCCCCCCCN.O=C(O)C1CC(C(=O)O)C(C(=O)O)C1C(=O)O` (stereo not shown) [Example V63], the Salt is water-soluble result is on record as “yes”.

`CC1(C)CC(N)CC(C)(CN)C1.O=C(O)C1CC(C(=O)O)C(C(=O)O)C1C(=O)O` (stereo not shown) [Example V69]: the Salt is water-soluble entry is given as “yes”. Regarding “Tricyclo[5.2.1.0^2,6]decane-3(4),8(9)-bis(methanammonium)-dihydrogen-1,2,3,4-cyclopentanetetracarboxylate [Example B24]”, the Salt is water-soluble entry is “yes”.

The series is the same for the next values; noted with them: salts of 1,2,4,5-cyclohexanetetracarboxylic acid; 1 ml distilled water with around 20 to 40% by weight of salt, stirred 15 minutes.
In the case of `NCCCCN.O=C(O)C1CC(C(=O)O)C(C(=O)O)CC1C(=O)O` (stereo not shown) [Example V72], the Salt is water-soluble result is on record as “yes”. For the compound `NCCCCCCCCCN.O=C(O)C1CC(C(=O)O)C(C(=O)O)CC1C(=O)O` (stereo not shown) [Example V78], the Salt is water-soluble result is listed as “yes”. As for `CC1(C)CC(N)CC(C)(CN)C1.O=C(O)C1CC(C(=O)O)C(C(=O)O)CC1C(=O)O` (stereo not shown) [Example V84], the Salt is water-soluble entry is listed as “yes”.

In the case of `NCc1cccc(CN)c1` [Example V85], the Salt is water-soluble entry is given as “yes”. Take “Norbornane bis(methylammonium)-dihydrogen-1,2,4,5-cyclohexanetetracarboxylate [Example B25]”: the Salt is water-soluble entry is “yes”.

For the compound “Tricyclo[5.2.1.0^2,6]decane-3(4),8(9)-bis(methanammonium)-dihydrogen-1,2,4,5-cyclohexanetetracarboxylate [Example B26]”, the Salt is water-soluble result is recorded as “yes”.

The series is the same for the next values; noted with them: salts of 3,3′,4,4′-benzophenonetetracarboxylic acid; 1 ml distilled water with around 20 to 40% by weight of salt, stirred 15 minutes.
Take `NCCCCN.O=C(c1ccc(C(=O)O)c(C(=O)O)c1)c1ccc(C(=O)O)c(C(=O)O)c1` [Example V86]: the Salt is water-soluble entry is reported as “no”.

Turning to `CC(C)(CN)CN.O=C(c1ccc(C(=O)O)c(C(=O)O)c1)c1ccc(C(=O)O)c(C(=O)O)c1` [Example V88], the Salt is water-soluble result is listed as “yes”. Regarding `NCCCCCCCCCCCCN.O=C(c1ccc(C(=O)O)c(C(=O)O)c1)c1ccc(C(=O)O)c(C(=O)O)c1` [Example V94], the Salt is water-soluble result is given as “no”. Consider `CC1(C)CC(N)CC(C)(CN)C1.O=C(c1ccc(C(=O)O)c(C(=O)O)c1)c1ccc(C(=O)O)c(C(=O)O)c1` [Example V95], for which the Salt is water-soluble result was “yes”. Same read-out and setting: for `CC1CC(CC2CCC(N)C(C)C2)CCC1N.O=C(c1ccc(C(=O)O)c(C(=O)O)c1)c1ccc(C(=O)O)c(C(=O)O)c1` [Example V97] the value was “yes”; for `Nc1cccc(N)n1` [Example V104], “no”; for “Norbornane bis(methylammonium)-dihydrogen-3,3′,4,4′-benzophenonetetracarboxylate [Example B27]”, “yes”.

For “Tricyclo[5.2.1.0^2,6]decane-3(4),8(9)-bis(methanammonium)-dihydrogen-3,3′,4,4′-benzophenonetetracarboxylate [Example B28]”, the Salt is water-soluble result is “yes”.

The same series, now with this note: salts of tetrahydrofuran-2,3,4,5-tetracarboxylic acid; 1 ml distilled water with around 20 to 40% by weight of salt, stirred 15 minutes; no = no clear solution.
Take `NCCCCN.O=C(O)C1OC(C(=O)O)C(C(=O)O)C1C(=O)O` (stereo not shown) [Example B2, Butane-1,4-diammonium-dihydrogen-tetrahydrofuran-2,3,4,5-tetracarboxylate]: the Salt is water-soluble entry is given as “yes”.

As for `NCCCCCN.O=C(O)C1OC(C(=O)O)C(C(=O)O)C1C(=O)O` (stereo not shown) [Example B3, Pentane-1,5-diammonium-dihydrogen-tetrahydrofuran-2,3,4,5-tetracarboxylate], the Salt is water-soluble result is on record as “yes”. On the same count and under the same terms, for `CC(C)(CN)CN.O=C(O)C1OC(C(=O)O)C(C(=O)O)C1C(=O)O` (stereo not shown) [Example B4, 2,2-Dimethylpropane-1,3-diammonium-dihydrogen-tetrahydrofuran-2,3,4,5-tetracarboxylate] the value was “yes”; for `CC(CN)CCCN.O=C(O)C1OC(C(=O)O)C(C(=O)O)C1C(=O)O` (stereo not shown) [Example B6, 2-Methylpentane-1,5-diammonium-dihydrogen-tetrahydrofuran-2,3,4,5-tetracarboxylate], “yes”; for `NCCCCCCCN.O=C(O)C1OC(C(=O)O)C(C(=O)O)C1C(=O)O` (stereo not shown) [Example B7, Heptane-1,7-diammonium-dihydrogen-tetrahydrofuran-2,3,4,5-tetracarboxylate], “yes”. Consider `NCCCCCCCCN.O=C(O)C1OC(C(=O)O)C(C(=O)O)C1C(=O)O` (stereo not shown) [Example B8, Octane-1,8-diammonium-dihydrogen-tetrahydrofuran-2,3,4,5-tetracarboxylate], for which the Salt is water-soluble entry was “yes”. Take `NCCCCCCCCCN.O=C(O)C1OC(C(=O)O)C(C(=O)O)C1C(=O)O` (stereo not shown) [Example B9, Nonane-1,9-diammonium-dihydrogen-tetrahydrofuran-2,3,4,5-tetracarboxylate]: the Salt is water-soluble result was “yes”. Consider `NC1CCCC(N)C1.O=C(O)C1OC(C(=O)O)C(C(=O)O)C1C(=O)O` (stereo not shown) [Example B11, Cyclohexane-1,3-diammonium-dihydrogen-tetrahydrofuran-2,3,4,5-tetracarboxylate], for which the Salt is water-soluble entry was “yes”. As to `NC1CCC(N)CC1.O=C(O)C1OC(C(=O)O)C(C(=O)O)C1C(=O)O` (stereo not shown) [Example B12, Cyclohexane-1,4-diammonium-dihydrogen-tetrahydrofuran-2,3,4,5-tetracarboxylate], the Salt is water-soluble entry is “yes”.

For the compound `NCC1CCCC(CN)C1.O=C(O)C1OC(C(=O)O)C(C(=O)O)C1C(=O)O` (stereo not shown) [Example B13, Cyclohexane-1,3-bis(methanammonium)-dihydrogen-tetrahydrofuran-2,3,4,5-tetracarboxylate], the Salt is water-soluble result is recorded as “yes”. `NCC1CCC(CN)CC1.O=C(O)C1OC(C(=O)O)C(C(=O)O)C1C(=O)O` (stereo not shown) [Example B14, Cyclohexane-1,4-bis(methanammonium)-dihydrogen-tetrahydrofuran-2,3,4,5-tetracarboxylate]: the Salt is water-soluble entry is “yes”. Consider `CC1(C)CC(N)CC(C)(CN)C1.O=C(O)C1OC(C(=O)O)C(C(=O)O)C1C(=O)O` (stereo not shown) [Example B16, Isophorone diammonium-dihydrogen-tetrahydrofuran-2,3,4,5-tetracarboxylate], for which the Salt is water-soluble entry was “yes”.

For the compound `CC1CC(CC2CCC(N)C(C)C2)CCC1N.O=C(O)C1OC(C(=O)O)C(C(=O)O)C1C(=O)O` (stereo not shown) [Example B18, 4,4′-Methylene-bis(2-methylcyclohexylammonium)-dihydrogen-tetrahydrofuran-2,3,4,5-tetracarboxylate], the Salt is water-soluble entry is “yes”. Regarding `NC1CCC(CC2CCC(N)CC2)CC1.O=C(O)C1OC(C(=O)O)C(C(=O)O)C1C(=O)O` (stereo not shown) [Example V2], the Salt is water-soluble entry was “no”. Regarding `Cc1ccc(N)cc1N` [Example V7], the Salt is water-soluble result is on record as “no”. Regarding `Nc1cccc(N)n1.O=C(O)C1OC(C(=O)O)C(C(=O)O)C1C(=O)O` (stereo not shown) [Example V9], the Salt is water-soluble entry is “no”. Take `Nc1ccc(Cc2ccc(N)cc2)cc1.O=C(O)C1OC(C(=O)O)C(C(=O)O)C1C(=O)O` (stereo not shown) [Example V11]: the Salt is water-soluble result is listed as “no”.

Consider `Cc1cc(-c2ccc(N)c(C)c2)ccc1N` [Example V12], for which the Salt is water-soluble result is on record as “no”.

Experiment in another series: not given
The following applies: according to perflavory.com; cited from earlier work.
Regarding `CC1CC(CC2CCC(N)C(C)C2)CCC1N` (stereo not shown) [4,4′-methylene-bis(2-methylcyclohexylamine)], the “water solubility of the diamine” value is given as “around 88 mg/l”.

The same series, now with this note: cited in Wikipedia; cited from earlier work.
With `NC1CCC(CC2CCC(N)CC2)CC1` (stereo not shown) [4,4′-methylene-bis(cyclohexylamine)], the “water solubility of the diamine” value was “about 4 g/l”.

The values above are taken from patent US20230265247A1, “PROCESS FOR PREPARING POLYIMIDES” (Technische Universität Wien, priority 2020, published 2023).
